In data set [1] the test system is prostate specific antigen (PSA). Kind of data set: Blood PSA level of patients treated orally with Accutane. It is filed as in vivo, human.
For data set [2], the system named is benign prostatic hyperplasia. Kind of data set: Clinical treatment of patients with benign prostatic hyperplasia / benign prostate conditions: symptoms and prostate size. It is filed as in vivo, human.
Data set [3] in a line: Side effects observed in the treated patients (informal trials).
Protocol: The treatment method involves essentially two periods: an initial treatment, and a sustaining treatment. First, in the initial treatment the patients orally administrate an initial dosage about 40 mg of 13-cis-retinoic acid daily for a period from about ten days to about twenty days. Thereafter, the patients orally administrate a sustaining dosage about 40 mg of 13-cis-retinoic acid about every five to seven days in a sustaining period. Typically, the sustaining period is about one year. However, it can be extended longer if extended maintenance is needed.
In the initial treatment, 40 mg of 13-cis-retinoic acid can be administrated in a single dose, or divided doses. […] The patients can either take one 40 mg capsule, or take two 20 mg capsules daily. The same applies to the dosage in the sustaining treatment. For convenience, the patients can take one 40 mg dose every five to seven days.
The initial dosage of about 40 mg 13-cis-retinoic acid daily is determined based on average men's body weight of about 160 lbs, i.e. at about 0.25 mg/lb of body weight. For patients who weigh substantially above or less than the average body weight, the dosage described above can be adjusted accordingly. The same principle applies to the sustaining dosage.
Where [4] appears, read: patients of the informal trials.

In the case of `CC1=C(/C=C/C(C)=C/C=C/C(C)=C\C(=O)O)C(C)(C)CCC1` [Accutane, 13-cis retinoic acid], the PSA after treatment entry in data set [1] (Example 1 patient, PSA 4 before, 40 mg orally for 14 days, then 40 mg every 5 days for about one year) is reported as “less than one”; in data set [1] (Example 2 patient, PSA 3 before, after 6 months, 40 mg for 14 days, then 40 mg every 5 days), “less than one”; in data set [1] (Example 3 patient, chronic posttraumatic prostatitis, PSA 5 before, 40 mg daily for 14 days, then 40 mg every 5 days) it was “less than 1”; in data set [1] (Example 4 patient, PSA 4 before, within 6 months, 40 mg per day for 14 days, then 40 mg every 5 days), “less than 1”. Besides, the symptoms entry in data set [2] (Example 1 patient, prostatic enlargement and attenuated urine stream, 40 mg for 14 days, then 40 mg every 5 days) is reported as “improved steadily”; in data set [2] (Example 2 patient, prostatic enlargement, decreasing urine flow, urgency, nocturia), “steady improvement in symptoms”; in data set [2] (Example 3 patient, chronic prostatitis, after the initial treatment, remained so during the sustaining period), “rapidly became symptom free”; in data set [2] (Example 4 patient, enlarged prostate, urinary tenesmus) it was “readily improved”. In addition, in data set [2] (Example 1 patient, 40 mg for 14 days, then 40 mg every 5 days), the “palpable size of prostate” value is recorded as “decreased in palpable size”. In addition, the prostate enlargement result in data set [2] (approximately twelve patients, by examination and the patients' own anecdotal comments) is “a reduction in prostate enlargement was confirmed”. The “worsening of condition (PSA or hyperplasia), progression to malignancy” value in data set [2] (setting [4]) is “none of the conditions of these patients worsened”. In addition, the blood chemistries entry in data set [3] (Example 1 patient, on sustaining dosage of 40 mg every 5 days) is on record as “remained normal”. For the same compound, the adverse side effects result was “drying of lips and some musculo-skeletal soreness at sites of old injuries to the fingers and neck” in data set [3] (Example 1 patient, soreness subsided slowly after the sustaining dose was instituted); “No adverse side effects were observed” in data set [3] (Example 2 patient). Further, the “serious adverse side effects or contra-indications” value in data set [3] (setting [4]) is listed as “no serious adverse side effects or contra-indications of any kind were observed”.

The values above are taken from patent publication US6733779B2, “Method of treating benign prostatic hyperplasia and other benign prostate conditions” (priority 1999, dated 2004).
